Measurements reported in the supplement of paper PMC10307832.

Columns and labels:
Assay in all cases: relative viability (nuclei count vs DMSO), 5 days (fraction); higher = more cells survive
Zosuquidar + Foretinib = compound: O[C@@H](COc1cccc2ncccc12)CN1CCN([C@@H]2c3ccccc3[C@@H]3[C@H](c4ccccc42)C3(F)F)CC1 [Zosuquidar] + COc1cc2c(Oc3ccc(NC(=O)C4(C(=O)Nc5ccc(F)cc5)CC4)cc3F)ccnc2cc1OCCCN1CCOCC1 [Foretinib] (partner 0.25 µM)
Summary of the method: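 Dosing by pin tool came one day after lung cancer cell lines were seeded in 1536-well plates, using either one drug or a fixed anchor-drug dose plus five library-drug doses (not always all listed) in √10 steps. After 5 days, nuclei were counted on 4× images. Relative viability is treated-well nuclei count divided by vehicle-well nuclei count, and values are medians of duplicate plates.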

Kobe2602 = compound: C1=CC(=CC=C1NC(=S)NNC2=C(C=C(C=C2[N+](=O)[O-])C(F)(F)F)[N+](=O)[O-])F [Kobe2602]
Summary of the method: (§1)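 Lung cancer cell lines in 1536-well plates were kept overnight at 37 °C, then pinned with five library-drug doses (not always all listed) spaced by √10 on vehicle-anchored plates. After 5 days without medium change, cells were fixed, permeabilised and Hoechst-stained in one step, imaged at 4×, and nuclei were counted with MetaXpress. Viability is treated-well nuclei divided by vehicle-well nuclei, taken as the median over plates. Plates passed only with control CV below 25% and at least one doubling.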

Cabozantinib = compound: COc1cc2nccc(Oc3ccc(NC(=O)C4(C(=O)Nc5ccc(F)cc5)CC4)cc3)c2cc1OC [Cabozantinib]
Summary of the method: as §1

Zosuquidar = compound: O[C@@H](COc1cccc2ncccc12)CN1CCN([C@@H]2c3ccccc3[C@@H]3[C@H](c4ccccc42)C3(F)F)CC1 [Zosuquidar]
Summary of the method: as §1

Cell Line	relative viability (Zosuquidar + Foretinib; first compound 0.01 µM)	relative viability (Zosuquidar + Foretinib; first compound 0.03162 µM)	relative viability (Zosuquidar + Foretinib; first compound 0.1 µM)	relative viability (Zosuquidar + Foretinib; first compound 0.3162 µM)	relative viability (Zosuquidar + Foretinib; first compound 1 µM)	relative viability (Kobe2602; 0.2 µM)	relative viability (Kobe2602; 0.6325 µM)	relative viability (Kobe2602; 2 µM)	relative viability (Kobe2602; 6.325 µM)	relative viability (Kobe2602; 20 µM)	relative viability (Cabozantinib; 0.02 µM)	relative viability (Cabozantinib; 0.06325 µM)	relative viability (Cabozantinib; 0.2 µM)	relative viability (Cabozantinib; 0.6325 µM)	relative viability (Cabozantinib; 2 µM)	relative viability (Zosuquidar; 0.01 µM)	relative viability (Zosuquidar; 0.03162 µM)	relative viability (Zosuquidar; 0.1 µM)	relative viability (Zosuquidar; 0.3162 µM)	relative viability (Zosuquidar; 1 µM)
NCI-H1437	1.28	1.24	1.16	1.3	1.31	0.958	0.978	1	0.983	0.96	1.05	1.08	0.946	0.998	0.975	0.976	0.979	0.91	1.09	0.942
EKVX	0.692	0.734	0.589	0.954	0.748	0.968	1.02	0.922	0.976	1.09	0.919	1.12	0.915	1.01	1.1	0.952	0.961	0.737	1.02	0.97
NCI-H596	0.805		0.788	0.939	0.868	1.02	0.927	1.01	0.92	1.11	1.1	1.17	1.06	1.01	0.983	1.06	0.806	1.04	1.14	1.04
NCI-H1993	0.758	0.724	0.701	0.81	0.673	0.877	0.993	0.876	0.792	0.87	0.681	0.787	0.584	0.734	0.788	0.925	0.879	0.685	1.06	0.826
HCC-78	0.549	0.548		0.571	0.606	0.984	0.975	0.968	0.918	1.15		0.958	0.471	0.37	0.447	1.07	1		0.997	0.897
NCI-H2087	1		0.992	1.21	1.12	1.02	1.08	0.995	1.08	1.13	1.09	1.16	1.03	0.922	1.02	1.06	0.971	0.907	1.19	1.07
H3255	0.957	0.607	0.621	0.938	0.738	0.959	1.03	0.909	0.91	0.915	0.948	1.04		0.994	1.07	0.959	0.952	0.8	1.07	0.931
NCI-H2126	1.17	1.09		1.18	1.23	1.01	1.02	0.975	0.971	0.961	0.747	1.05	0.991	0.99	1.11	0.96	0.996	0.741	1.03	1.03
LC-2-ad	0.975	0.933	0.862	1.03	0.931	0.999	1.02	0.954	0.951	1.08	0.838	1.13	0.946	0.878	0.704	0.919	1.07	0.923	1.13	0.995
SW 1573	0.976	0.888	1.07	1.05	0.879	0.933	1.02	0.915	0.883	0.907	0.984	1.05	1.01	0.979	0.819	0.925	1	1.03	1.07	0.934
EBC-1	0.121	0.106	0.093	0.095	0.097	0.956	1.05	0.957	0.93	0.984	1.04	0.901	0.227	0.174	0.165	1.05	1.01	0.956	1.11	0.929
HCC-15	1.08	1.08	0.864	1.04	1.09	1	1.03	0.976	0.998	0.991	0.972	1.11	1.01	0.994	1.02	0.959	0.937	0.956	1.04	0.972
NCI-H1650	1.12	1.04	1.21	1.15	1.49	0.891	1.02	0.99	0.913	0.846	0.925	1.13	0.805	1.02	0.89	0.885	0.929	0.876	1.06	0.912
COR-L 105	0.865	0.888	1.29	1.04	0.899	0.899	1.06	0.858	0.985	0.914	0.844	0.991		0.888	0.857	0.955	0.841	0.796	1.04	0.905
NCI-H650	1.03	0.984	0.908	1.15	0.939	0.913	1.11	0.885	0.986	0.905	0.745	0.966	1.12	0.86	0.899	1.02	0.836	0.807	1.12	0.851
LXF-289	0.956	1.02	0.94	1.02	0.968	1.03	1.04	0.99	0.985	0.991	1.04	1.02	0.974	1.05	1.02	1.01	1.02	1.01	1.02	0.97
